Earlier results on 1 molecule are cited in patent US20180221332A1, “Flash-Melt Cannabinoid Formulations” (CannTab Therapeutics Limited, priority 2017, published 2018).

For series [1] the following is noted: NICHD/FDA Oral Formulations Platform Report 1; low solubility, unknown permeability.
For series [2] the following is noted: after administration.

Take `CCCCCc1cc(O)c2c(c1)OC(C)(C)[C@@H]1CCC(C)=C[C@@H]21` [Dronabinol, (−)-trans-Δ^9-tetrahydrocannabinol]: the biopharmaceutics class result in series [1] is listed as “class 2 or class 4”. The “duration of appetite stimulant effect” value in series [2] was at least 24 h.
